Measurements taken from ChEMBL document CHEMBL1153803, “Parallel synthesis of chiral pentaamines and pyrrolidine containing bis-heterocyclic libraries. Multiple scaffolds with multiple building blocks: a double diversity for the identification of new antitubercular compounds” (Bioorg Med Chem Lett, 2009).
Converted amounts (≈) assume the structure as drawn.

Legend:
[1] = system: Mycobacterium tuberculosis; experiment: Antimicrobial activity against Mycobacterium tuberculosis H37Rv ATCC 27294 by microplate Almar blue assay; type: functional; conditions: Mycobacterium tuberculosis, H37Rv ATCC 27294; read-out: MIC
[2] = system: Mycobacterium tuberculosis; experiment: Antimicrobial activity against Mycobacterium tuberculosis H37Rv ATCC 27294 at 6.25 ug/mL by broth microdilution assay; type: functional
[3] = Selective index, the ratio of IC50 in the african green monkey Vero cells to the MIC to Mycobacterium tuberculosis H37Rv ATCC 27294; type: functional
[4] = system: Vero; experiment: Cytotoxicity against african green monkey Vero cells at after 72 hrs by MTT assay; type: cell-based, Chlorocebus sabaeus; conditions: Chlorocebus sabaeus, Vero, 72 h; read-out: IC50

Row | Compound | MIC [1] [µg/mL] | inhibition at 6.25 µg/mL [2] [%] | Selectivity Index [3] | IC50 [4] [µg/mL]
1 | Brc1cccc(CCCN2CCN([C@@H](Cc3ccccc3)CN3CCCC3CN3CCNC[C@@H]3Cc3ccccc3)C[C@@H]2Cc2ccccc2)c1 (stereo not given in full) | 3.9 (≈ 5.21 µM) | 99 | 0.29 | 1.12 (≈ 1.5 µM)
2 | FC(F)(F)c1cccc(CCN2CCN([C@@H](Cc3ccccc3)CN3CCCC3CN3CCNC[C@@H]3Cc3ccccc3)C[C@@H]2Cc2ccccc2)c1 (stereo not given in full) | 3.9 (≈ 5.39 µM) | 99 | 0.29 | 1.12 (≈ 1.55 µM)
3 | Oc1ccc(CCN2CCN([C@@H](Cc3ccccc3)CN3CCCC3CN3CCNC[C@@H]3Cc3ccccc3)C[C@@H]2Cc2ccccc2)cc1 (stereo not given in full) | 3.9 (≈ 5.8 µM) | 99 | 0.28 | 1.11 (≈ 1.65 µM)
4 | Cc1cccc(CCN2CCN([C@@H](Cc3ccccc3)CN3CCCC3CN3CCNC[C@@H]3Cc3ccccc3)C[C@@H]2Cc2ccccc2)c1 (stereo not given in full) | 3.9 (≈ 5.82 µM) | 99 | 0.27 | 1.05 (≈ 1.57 µM)
5 | c1ccc(CCN2CCN([C@H](Cc3ccc4ccccc4c3)CN3CCCC3CN3CCNC[C@@H]3Cc3ccccc3)C[C@@H]2Cc2ccccc2)cc1 (stereo not given in full) | 3.9 (≈ 5.52 µM) | 100 | 0.27 | 1.06 (≈ 1.5 µM)
6 | Fc1ccc(CCN2CCN([C@@H](Cc3ccccc3)CN3CCCC3CN3CCNC[C@@H]3Cc3ccccc3)C[C@@H]2Cc2ccccc2)cc1 (stereo not given in full) | 3.9 (≈ 5.79 µM) | 98 | 0.27 | 1.05 (≈ 1.56 µM)
7 | Clc1ccc(CCN2CCN([C@@H](Cc3ccccc3)CN3CCCC3CN3CCNC[C@@H]3Cc3ccccc3)C[C@@H]2Cc2ccccc2)cc1Cl (stereo not given in full) | 3.9 (≈ 5.38 µM) | 99 | 0.27 | 1.07 (≈ 1.48 µM)
8 | CC(C)[C@@H](CN1CCCC1CN1CCNC[C@@H]1Cc1ccccc1)N1CCN(CCc2ccccc2)[C@@H](Cc2ccccc2)C1 (stereo not given in full) | 3.9 (≈ 6.42 µM) | 100 | 0.26 | 1 (≈ 1.64 µM)
9 | CCCC[C@@H](CN1CCCC1CN1CCNC[C@@H]1Cc1ccccc1)N1CCN(CCc2ccccc2)[C@@H](Cc2ccccc2)C1 (stereo not given in full) | 3.9 (≈ 6.27 µM) | 100 | 0.26 | 1 (≈ 1.61 µM)
10 | c1ccc(CCN2CCN([C@@H](Cc3ccc4ccccc4c3)CN3CCCC3CN3CCNC[C@@H]3Cc3ccccc3)C[C@@H]2Cc2ccccc2)cc1 (stereo not given in full) | 3.9 (≈ 5.52 µM) | 100 | 0.26 | 1 (≈ 1.42 µM)
11 | CCOc1ccc(CCN2CCN([C@@H](Cc3ccccc3)CN3CCCC3CN3CCNC[C@@H]3Cc3ccccc3)C[C@@H]2Cc2ccccc2)cc1 (stereo not given in full) | 3.9 (≈ 5.57 µM) | 98 | 0.26 | 1.03 (≈ 1.47 µM)
12 | CCCCCCCN1CCN([C@@H](Cc2ccccc2)CN2CCCC2CN2CCNC[C@@H]2Cc2ccccc2)C[C@@H]1Cc1ccccc1 (stereo not given in full) | 3.9 (≈ 6 µM) | 99 | 0.26 | 1.03 (≈ 1.58 µM)
13 | CCC(C)CCN1CCN([C@@H](Cc2ccccc2)CN2CCCC2CN2CCNC[C@@H]2Cc2ccccc2)C[C@@H]1Cc1ccccc1 (stereo not given in full) | 3.9 (≈ 6.13 µM) | 96 | 0.26 | 1 (≈ 1.57 µM)
14 | c1ccc(C[C@H]2CNCCN2CC2CCCN2C[C@H](Cc2ccccc2)N2CCN(CCc3ccc(-c4ccccc4)cc3)[C@@H](Cc3ccccc3)C2)cc1 (stereo not given in full) | 3.9 (≈ 5.33 µM) | 97 | 0.26 | 1 (≈ 1.37 µM)
15 | CC(C)C[C@@H](CN1CCCC1CN1CCNC[C@@H]1Cc1ccccc1)N1CCN(CCc2ccccc2)[C@@H](Cc2ccccc2)C1 (stereo not given in full) | 3.9 (≈ 6.27 µM) | 100 | 0.25 | 0.99 (≈ 1.59 µM)
16 | c1ccc(CCN2CCN([C@@H](Cc3ccccc3)CN3CCCC3CN3CCNC[C@@H]3Cc3ccccc3)C[C@H]2CC2CCCCC2)cc1 (stereo not given in full) | 3.9 (≈ 5.89 µM) | 98 | 0.25 | 0.97 (≈ 1.47 µM)
17 | c1ccc(CCN2CCN([C@H](CC3CCCCC3)CN3CCCC3CN3CCNC[C@@H]3Cc3ccccc3)C[C@@H]2Cc2ccccc2)cc1 (stereo not given in full) | 3.9 (≈ 5.89 µM) | 98 | 0.24 | 0.92 (≈ 1.39 µM)
18 | c1ccc(C[C@H]2CNCCN2CC2CCCN2C[C@H](Cc2ccccc2)N2CCN(CC3(c4ccccc4)CC3)[C@@H](Cc3ccccc3)C2)cc1 (stereo not given in full) | 3.9 (≈ 5.72 µM) | 99 | 0.24 | 0.94 (≈ 1.38 µM)
19 | Cc1ccc(CN2CCN([C@@H](Cc3ccccc3)CN3CCCC3CN3CCNC[C@@H]3Cc3ccccc3)C[C@@H]2Cc2ccccc2)cc1 (stereo not given in full) | 3.9 (≈ 5.95 µM) | 98 | 0.23 | 0.88 (≈ 1.34 µM)
20 | CC(CCN1CCN([C@@H](Cc2ccccc2)CN2CCCC2CN2CCNC[C@@H]2Cc2ccccc2)C[C@@H]1Cc1ccccc1)c1ccccc1 (stereo not given in full) | 3.9 (≈ 5.7 µM) | 99 | 0.22 | 0.87 (≈ 1.27 µM)
21 | c1ccc(CCN2CCN([C@@H](Cc3ccccc3)CN3CCCC3CN3CCNC[C@H]3Cc3ccccc3)C[C@@H]2Cc2ccccc2)cc1 (stereo not given in full) | 3.9 (≈ 5.95 µM) | 99 | 0.22 | 0.86 (≈ 1.31 µM)
22 | c1ccc(C[C@H]2CNCCN2CC2CCCN2C[C@H](Cc2ccccc2)N2CCN(CCC3CC4CCC3C4)[C@@H](Cc3ccccc3)C2)cc1 (stereo not given in full) | 3.9 (≈ 5.79 µM) | 97 | 0.22 | 0.87 (≈ 1.29 µM)
23 | c1ccc(CCN2CCN([C@@H](Cc3ccccc3)CN3CCCC3CN3CCNC[C@@H]3Cc3ccccc3)C[C@@H]2CC2CCCCC2)cc1 (stereo not given in full) | 3.9 (≈ 5.89 µM) | 99 | 0.21 | 0.82 (≈ 1.24 µM)
24 | Fc1cccc(CCN2CCN([C@@H](Cc3ccccc3)CN3CCCC3CN3CCNC[C@@H]3Cc3ccccc3)C[C@@H]2Cc2ccccc2)c1 (stereo not given in full) | 3.9 (≈ 5.79 µM) | 98 | 0.21 | 0.8 (≈ 1.19 µM)
25 | CCC(C)CN1CCN([C@@H](Cc2ccccc2)CN2CCCC2CN2CCNC[C@@H]2Cc2ccccc2)C[C@@H]1Cc1ccccc1 (stereo not given in full) | 3.9 (≈ 6.27 µM) | 97 | 0.18 | 0.7 (≈ 1.13 µM)
26 | c1ccc(C[C@H]2CNCCN2CC2CCCN2C[C@H](Cc2ccccc2)N2CCN(CC3CCCCC3)[C@@H](Cc3ccccc3)C2)cc1 (stereo not given in full) | 3.9 (≈ 6.02 µM) | 100 | 0.18 | 0.71 (≈ 1.1 µM)
27 | c1ccc(C[C@H]2CNCCN2CC2CCCN2C[C@H](Cc2ccccc2)N2CCN(CCC3CCCCC3)[C@@H](Cc3ccccc3)C2)cc1 (stereo not given in full) | 3.9 (≈ 5.89 µM) | 99 | 0.16 | 0.62 (≈ 0.937 µM)
28 | c1ccc(C[C@H]2CNCCN2CC2CCCN2C[C@H](Cc2ccccc2)N2CCN(CCCC3CCCC3)[C@@H](Cc3ccccc3)C2)cc1 (stereo not given in full) | 3.9 (≈ 5.89 µM) | 100 | 0.11 | 0.42 (≈ 0.634 µM)
29 | COc1cccc(CCN2CCN([C@@H](Cc3ccccc3)CN3CCCC3CN3CCNC[C@@H]3Cc3ccccc3)C[C@@H]2Cc2ccccc2)c1 (stereo not given in full) | 3.9 (≈ 5.69 µM) | 99 | 0.08 | 0.32 (≈ 0.466 µM)
30 | COc1ccc(CCN2CCN([C@@H](Cc3ccccc3)CN3CCCC3CN3CCNC[C@@H]3Cc3ccccc3)C[C@@H]2Cc2ccccc2)cc1 (stereo not given in full) | 3.9 (≈ 5.69 µM) | 99 | 0.08 | 0.33 (≈ 0.481 µM)
